Measurements published in article PMC9697025, “Discovery of N-Containing (-)-Borneol Esters as Respiratory Syncytial Virus Fusion Inhibitors” (Pharmaceuticals, 2022).
Like-named read-outs stand apart in the source and are kept apart here. Marks after values point to notes of the source that are not given here.

Assays:
rVSV-ΔG-MarV-GP = conditions: CC50/IC50MarV-GP, HEK293T cells ref 12,13; cited from earlier work
rVSV-ΔG-EboV-GP = conditions: CC50/IC50EboV-GP, HEK293T cells ref 12,13; cited from earlier work
[1] = system: A/Puerto Rico/8/34 (H1N1) virus; design: method as in PMID 30108810; conditions: CC50/IC50H1N1, A/Puerto Rico/8/34 (H1N1) ref 15; cited from earlier work
in vitro = conditions: human
RSV A strain A2 = experiment: In vitro antiviral assay against RSV A strain A2 in HEp-2 cells (ELISA, virus titer); format: cell-based, respiratory syncytial virus; conditions: for IC50: RSV A strain A2 in HEp-2 cells, mean ± SD
RSV A strain = conditions: for effect on viral titer, time-of-addition: compound added at 1 h post infection; for inhibitory activity, time-of-addition: compound added at later time points (after 2 h post infection); for time of addition up to which antiviral activity was maintained: post infection
[2] = MTT cytotoxicity assay with non-infected HEp2 cells; conditions: human
pSARS-CoV-2-S = system: pSARS-CoV-2-S; design: method as in PMID 35746766; conditions: CC50/IC50pSARS-CoV-2-S, pseudovirus ref 14; cited from earlier work
RSV = experiment: Temperature shift assay (virus attachment at 4 °C vs post-binding); conditions: unbound virus washed away, compound added before shift to 37 °C
Vaccinia virus = conditions: CC50/IC50VACV ref 16; cited from earlier work
SARS-CoV-2 = system: SARS-CoV-2; design: method as in PMID 35746766; conditions: CC50/IC50SARS-CoV-2, against various SARS-CoV-2 virus strains ref 14; cited from earlier work
[3] = human respiratory syncytial virus, HEp-2, 50% decrease in virus replication
[4] = selectivity index, CC50/IC50 ratio, RSV A2 / HEp-2

SMILES | SIMarV-GP (rVSV-ΔG-MarV-GP) | SIEboV-GP (rVSV-ΔG-EboV-GP) | SIH1N1 [1] | IC50 (RSV A strain A2; [3]) | CC50 at 24 h [2] | SI (RSV A strain A2; [4]) | further results
CCN1CCN(CCC(=O)OC2CC3CCC2(C)C3(C)C)CC1 (stereo not drawn) [II (n=2)] | ^a SIMarV-GP = 47 | ^b SIEboV-GP = 170 | ^c SIH1N1 = 12 | – | – | – | –
CN1CCN(CC(=O)OC2CC3CCC2(C)C3(C)C)CC1 (stereo not drawn) [I (n=1)] | ^a SIMarV-GP = 14 | ^b SIEboV-GP = 46 | ^c SIH1N1 = 23 | – | – | – | –
NC(=O)c1ncn([C@@H]2O[C@H](CO)[C@@H](O)[C@H]2O)n1 [Ribavirin, reference compound] | – | – | – | 80 µM | – | – | CC50 at 24 h (in vitro): < 4000 µM; SI (RSV A strain A2): 50; IC50 (RSV A strain A2; 50% decrease in virus replication): 80.1 ± 13.5 µM
CC1(C)[C@H]2CC[C@]1(C)[C@H](OC(=O)CN1CCOCC1)C2 [Compound 5a] | ^a SIMarV-GP = 5 | ^b SIEboV-GP = 13 | ^c SIH1N1 = 82 | 5 ± 1 µM | 413 ± 35.1 µM | – | effect on viral titer, time-of-addition (RSV A strain): significant reduction in viral titer; inhibitory activity, time-of-addition (RSV A strain): lost their inhibitory activity; time of addition up to which antiviral activity was maintained (RSV A strain): up to 2 h; SI (RSV A strain A2): 83; SIpSARS-CoV-2-S (pSARS-CoV-2-S): ^e SIpSARS-CoV-2-S = 5; anti-RSV activity, temperature shift conditions (B) (RSV): antiviral activity was maintained; SIVACV (Vaccinia virus): ^d SIVACV = 56
CC1(C)[C@H]2CC[C@]1(C)[C@H](OC(=O)CCN1CCN(c3ccccc3)CC1)C2 [Compound 14b, (1S,2R,4S)-1,7,7-Trimethylbicyclo [2.2.1]heptan-2-yl 3-(4-phenylpiperazin-1-yl)propanoate] | – | – | – | 8.1 ± 0.9 µM | 366 ± 25.8 µM | 45 | melting point: 83 °C
CCN1CCN(CC(=O)OC2CC3CCC2(C)C3(C)C)CC1 (stereo not drawn) [II (n=1)] | ^a SIMarV-GP = 29 | ^b SIEboV-GP = 80 | ^c SIH1N1 = 16 | – | – | – | –
CCCCN(CCCC)CC(=O)OC1CC2CCC1(C)C2(C)C (stereo not drawn) [IV (n=1)] | ^a SIMarV-GP = 6 | – | ^c SIH1N1 = 16 | – | – | – | SISARS-CoV-2 (SARS-CoV-2): SISARS-CoV-2 = 11–40 *; SIpSARS-CoV-2-S (pSARS-CoV-2-S): ^e SIpSARS-CoV-2-S = 10
CC1(C)[C@H]2CC[C@]1(C)[C@H](OC(=O)CCN1CCOCC1)C2 [Compound 5b] | ^a SIMarV-GP = 5 | ^b SIEboV-GP = 36 | ^c SIH1N1 = 45 | 8.5 ± 2.8 µM | 127 ± 15.2 µM | – | SI (RSV A strain A2): 15; SIpSARS-CoV-2-S (pSARS-CoV-2-S): ^e SIpSARS-CoV-2-S = 18; SIVACV (Vaccinia virus): ^d SIVACV = 48
CN1CCN(CCC(=O)OC2CC3CCC2(C)C3(C)C)CC1 (stereo not drawn) [I (n=2)] | ^a SIMarV-GP = 20 | ^b SIEboV-GP = 870 | ^c SIH1N1 = 25 | – | – | – | –
CCCCN(CCCC)CCC(=O)OC1CC2CCC1(C)C2(C)C (stereo not drawn) [IV (n=2)] | ^a SIMarV-GP = 15 | – | ^c SIH1N1 = 12 | – | – | – | SISARS-CoV-2 (SARS-CoV-2): SISARS-CoV-2 = 6–102 *; SIpSARS-CoV-2-S (pSARS-CoV-2-S): ^e SIpSARS-CoV-2-S = 29
CN(C)CCC(=O)O[C@@H]1C[C@@H]2CC[C@@]1(C)C2(C)C [Compound 3b] | – | – | – | 8.9 ± 2.4 µM | 983 ± 44.2 µM | 111 | effect on viral titer, time-of-addition (RSV A strain): significant reduction in viral titer; inhibitory activity, time-of-addition (RSV A strain): lost their inhibitory activity; time of addition up to which antiviral activity was maintained (RSV A strain): up to 2 h; anti-RSV activity, temperature shift conditions (B) (RSV): antiviral activity was maintained
CC1(C)[C@H]2CC[C@]1(C)[C@H](OC(=O)CCN1CCCCC1)C2 [Compound 6b] | – | – | – | 14.6 ± 1.2 µM | 326 ± 45.6 µM | 22 | effect on viral titer, time-of-addition (RSV A strain): significant reduction in viral titer; inhibitory activity, time-of-addition (RSV A strain): lost their inhibitory activity; time of addition up to which antiviral activity was maintained (RSV A strain): up to 2 h; anti-RSV activity, temperature shift conditions (B) (RSV): antiviral activity was maintained
CC1(C)[C@H]2CC[C@]1(C)[C@H](OC(=O)CCCN1CCOCC1)C2 [Compound 5c] | – | – | – | 5.8 ± 0.9 µM | 307 ± 24.1 µM | 53 | SIVACV (Vaccinia virus): ^d SIVACV = 23
CN1CCN(CC(=O)O[C@@H]2C[C@@H]3CC[C@@]2(C)C3(C)C)CC1 [Compound 9a] | – | – | – | 13.9 ± 2.4 µM | 267 ± 16.5 µM | 19 | –
